How the values were obtained:
[1] = system: endometrium; experiment: Clinical trial similar to the Kaufmann's trial (endometrial conversion); format: in vivo, women
From the text: (§1) The ratio of the ovulation-inhibiting activity in women (in mg/day) to the endometrial luteinizing |activity (in mg/cycle) as defined by Neumann (1977) is thus in the order of 0.2, i.e. close to those of cyproterone acetate and chlormadinone acetate; this indicates a strong central activity (Oettel et al., 1999). In this sense, it clearly differs from dienogest, whose activity is disequilibrated to the benefit of the peripheral activity.

[2] = system: ovulation; settings: cited from earlier work
[3] = system: ovulation; experiment: Inhibition of ovulation in women (literature data); format: in vivo; settings: as defined by Neumann (1977)
Protocol: The oestrogenic component involves oestradiol or an ester or an ether thereof, such as, for example, the valerate, benzoate, enanthate, etc., the doses used being calculated as oestradiol equivalents. The doses range from 0.3 mg to 3 mg per day with a preference for a range from 0.5 mg to 2 mg per day. According to the literature data (Hirvonen, 1995), a dose of 4 mg is needed to ensure the inhibition of ovulation, but they correspond to the doses used to compensate for hypooestrogenic states. For example, in menopausal women, the dose recommended to compensate for hypooestrogenic states is about 1.5 mg.
as §1

[4] = system: women; experiment: Another clinical trial, same methodology, with the progestative agent alone; format: in vivo; settings: NOMAC 1.25 mg alone (n=3), treated cycle
Protocol: This synergistic effect of oestradiol is confirmed by comparing the results of this study with those of another clinical trial performed according to the same methodology, but with the progestative agent alone. […] On the other hand, the addition of oestradiol lowers the plasmatic levels of oestradiol, assayed 24 hours after taking the medicinal product, by about […]; this parameter is a good reflection of the endogenous secretion of the ovaries (Table II).

[5] = system: female volunteers in the period of ovarian activity; experiment: Randomized double-blind study of the anti-ovulatory action of the oestradiol/nomegestrol acetate combination in 38 female volunteers; format: in vivo, women; settings: day 1-21, m ± sem
Protocol: The anti-ovulatory action of the oestradiol/nomegestrol acetate combination was evaluated in a randomized double-blind study on 38 female volunteers, in good health, aged 18 to 35, in the period of ovarian activity, for whom it was checked beforehand, by means of an assay of the progesterone in the plasma and the establishment of a temperature curve, that they had ovulatory menstrual cycles.
The women were monitored for two consecutive cycles: the first was a control cycle without treatment; during the following cycle (cycle under treatment), they received a hormonal treatment administered orally daily from the 1st to the 21st day of the cycle.
According to the randomization: • 9 women received 1.5 mg of oestradiol+0.625 mg of nomegestrol acetate (group A), • 10 others received 1.5 mg of oestradiol+1.25 mg of nomegestrol acetate (group B), • another 10 received 1.5 mg of oestradiol+2.5 mg of nomegestrol acetate (group C), • and the other 9 were treated with nomegestrol acetate alone at a dose of.2.5 mg (group D).
During the control cycle, the hormonal parameters were not significantively different among the four groups. Table I indicates the mean concentrations observed for each hormonal parameter in the course of the 21 days of treatment.

SMILES: CC(=O)O[C@]1(C(C)=O)CC[C@H]2[C@@H]3C=C(C)C4=CC(=O)CC[C@@H]4[C@H]3CC[C@@]21C [NOMAC, nomegestrol acetate]
- Daily dose giving endometrial conversion ([1]; daily dose): 1 mg
- Dose for the entire cycle giving endometrial conversion ([1]; entire cycle): 10 mg
- Effect on ovulation ([2]; given alone at 1.25 mg per day, oestradiol level in plasma increases): abolishes ovulation
- Daily dose giving inhibition of ovulation and of follicle development in women ([2]; nomegestrol acetate alone, Bazin et al., 1987): 2.5 mg
- Ratio of ovulation-inhibiting activity (mg/day) to endometrial luteinizing activity (mg/cycle) [3]: ~0.2
- FSH mean concentration in the plasma [4]: 3.3 mIU/ml
- LH mean concentration in the plasma [4]: 3.1 mIU/ml
- Oestradiol mean concentration in the plasma [4]: 158.8 pg/mL
- LH mean concentration in the plasma ([5]; Group D (n=9): 2.5 mg NOMAC alone oral daily): 5.6 ± 0.62 mIU/ml
- FSH mean concentration in the plasma ([5]; Group D: 2.5 mg NOMAC alone): 7.6 ± 0.28 mIU/ml
- Oestradiol mean concentration in the plasma ([5]; Group D: 2.5 mg NOMAC alone): 31.9 ± 3.91 pg/mL
- Progesterone mean concentration in the plasma ([5]; Group D: 2.5 mg NOMAC alone): 0.07 ± 0.014 ng/mL

SMILES: C[C@]12CC[C@@H]3c4ccc(O)cc4CC[C@H]3[C@@H]1CC[C@@H]2O [oestradiol, 17beta-oestradiol]
- Dose needed to ensure the inhibition of ovulation ([2]; oestradiol alone, Hirvonen, 1995): 4 mg

Source: patent US6906049B1, “Contraceptive medicine based on a progestational agent and an oestrogen and preparation method” (Laboratoire Theramex, priority 1996, dated 2005)
